The record followed here is patent US20180099931A1 (AbbVie S.à.r.l., priority 2016, published 2018).

Like-named read-outs stand apart in the source and are kept apart here. Where only a bound is given, the exact number is not on record here.

This assay has as its target T1, F508delCFTR (Homo sapiens, UniProt P13569, DEL508-508).
T1 construct: expressed in transfected cells; host or cells: CFBE41o- human lung-derived epithelial cells (CFBE4lo-F508delCFTR-HRP), doxycycline-inducible
Briefly: Cell Surface Expression-Horse Radish Peroxidase (CSE-HRP) Assay.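 On Maximum % activity (with co-corrector): co-corrector and positive control are both the same reference corrector at 2 µM.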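 On Maximum % activity (without co-corrector): percent of the 2 µM on-plate positive control corrector response above DMSO.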 The assay is classed as cell-based. The following applies: for Maximum % activity (with co-corrector) / Maximum % activity (without co-corrector) / Emax: maximum at any tested concentration, normalized to on-plate positive control; for Emax: read-out: Maximum % activity (without co-corrector).

Setting [1] is: test compound without co-corrector, read-out: EC50 (without co-corrector).
Where [2] appears, read: with co-corrector (2 μM of 3-[(2R,4R)-4-({[1-(2,2-difluoro-1,3-benzodioxol-5-yl)cyclopropyl]carbonyl}amino)-7-methoxy-3,4-dihydro-2H-chromen-2-yl]benzoic acid), read-out: EC50 (with co-corrector).
[3] abbreviates: CSE-HRP, test compound without co-corrector, read-out: EC50 (without co-corrector).
The mark [4] stands for this setting: CSE-HRP, with co-corrector (2 μM of 3-[(2R,4R)-4-({[1-(2,2-difluoro-1,3-benzodioxol-5-yl)cyclopropyl]carbonyl}amino)-7-methoxy-3,4-dihydro-2H-chromen-2-yl]benzoic acid), read-out: EC50 (with co-corrector).
Setting [5] is: CSE-HRP, with co-corrector (2 μM).
Where [6] appears, read: CSE-HRP, with co-corrector (2 μM), 2 µM.
Where [7] appears, read: test compound without co-corrector.
[8] abbreviates: with co-corrector (2 μM of 3-[(2R,4R)-4-({[1-(2,2-difluoro-1,3-benzodioxol-5-yl)cyclopropyl]carbonyl}amino)-7-methoxy-3,4-dihydro-2H-chromen-2-yl]benzoic acid).
[9] abbreviates: with co-corrector (2 μM of 3-[(2R,4R)-4-({[1-(2,2-difluoro-1,3-benzodioxol-5-yl)cyclopropyl]carbonyl}amino)-7-methoxy-3,4-dihydro-2H-chromen-2-yl]benzoic acid), 2 µM.

T1 sequence (P13569 with tags, fused parts or gaps DEL508-508): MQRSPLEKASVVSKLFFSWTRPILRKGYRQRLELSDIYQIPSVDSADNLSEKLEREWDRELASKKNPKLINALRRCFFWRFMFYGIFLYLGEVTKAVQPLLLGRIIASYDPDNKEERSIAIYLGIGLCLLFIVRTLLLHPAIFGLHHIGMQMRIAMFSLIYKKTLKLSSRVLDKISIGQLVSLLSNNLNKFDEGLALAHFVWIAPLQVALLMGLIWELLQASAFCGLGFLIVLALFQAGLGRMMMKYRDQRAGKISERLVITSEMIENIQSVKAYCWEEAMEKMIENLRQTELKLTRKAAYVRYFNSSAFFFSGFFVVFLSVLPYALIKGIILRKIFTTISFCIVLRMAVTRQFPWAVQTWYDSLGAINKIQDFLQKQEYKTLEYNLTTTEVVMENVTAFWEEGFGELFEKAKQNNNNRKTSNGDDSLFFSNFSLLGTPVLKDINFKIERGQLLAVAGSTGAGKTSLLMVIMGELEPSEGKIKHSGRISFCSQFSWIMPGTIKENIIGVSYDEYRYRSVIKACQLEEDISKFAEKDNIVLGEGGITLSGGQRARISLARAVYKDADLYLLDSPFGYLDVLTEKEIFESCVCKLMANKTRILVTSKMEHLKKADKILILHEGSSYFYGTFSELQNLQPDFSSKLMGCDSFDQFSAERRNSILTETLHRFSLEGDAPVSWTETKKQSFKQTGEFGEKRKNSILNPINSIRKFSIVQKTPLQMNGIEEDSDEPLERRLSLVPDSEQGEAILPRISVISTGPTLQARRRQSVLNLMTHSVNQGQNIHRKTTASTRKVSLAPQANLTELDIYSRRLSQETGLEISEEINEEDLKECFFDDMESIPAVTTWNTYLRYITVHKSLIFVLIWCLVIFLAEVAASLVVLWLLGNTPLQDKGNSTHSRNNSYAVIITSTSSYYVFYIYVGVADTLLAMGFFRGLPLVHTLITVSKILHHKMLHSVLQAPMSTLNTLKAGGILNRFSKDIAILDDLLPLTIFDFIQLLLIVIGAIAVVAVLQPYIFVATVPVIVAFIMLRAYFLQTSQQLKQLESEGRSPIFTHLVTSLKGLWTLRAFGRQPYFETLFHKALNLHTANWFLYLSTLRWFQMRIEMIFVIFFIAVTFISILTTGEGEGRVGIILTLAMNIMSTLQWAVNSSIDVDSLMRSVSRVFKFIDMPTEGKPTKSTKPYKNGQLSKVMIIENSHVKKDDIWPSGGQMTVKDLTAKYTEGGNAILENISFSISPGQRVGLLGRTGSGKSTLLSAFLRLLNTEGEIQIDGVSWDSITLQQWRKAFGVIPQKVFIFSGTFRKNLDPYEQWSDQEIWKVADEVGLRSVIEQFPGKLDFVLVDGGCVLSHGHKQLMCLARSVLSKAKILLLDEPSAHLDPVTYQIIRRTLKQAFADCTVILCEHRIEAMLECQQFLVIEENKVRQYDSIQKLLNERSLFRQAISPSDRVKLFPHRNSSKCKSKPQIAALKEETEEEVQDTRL

Regarding `COc1ccc(C(C)(C)C)cc1CN[C@H]1[C@H](C(C)(C)C)[C@@H](C(=O)O)N(C(=O)C2Cc3ccccc3O2)[C@H]1c1cccnc1OC` (single isomer, unassigned) [Example I-166], the EC50 (usually the concentration at which the effect is half-maximal) is, setting by setting: under setting [1], 1 to 10 µM; under setting [2], less than 1 µM. Besides, the “Maximum % activity (with co-corrector)” value (with co-corrector (2 μM)) is “+++ (≥350)”. For the same molecule, the “Maximum % activity (without co-corrector)” value (without co-corrector) was “+ (<100)”.

For the molecule `COc1ccc(C2(C(F)(F)F)CC2)cc1CN[C@H]1[C@H](C(C)(C)C)[C@@H](C(=O)O)N(C(=O)C2Cc3ccccc3O2)[C@H]1c1cccnc1N(C)C` (single isomer, unassigned) [Example I-175], the EC50 under setting [1] is less than 1 µM and the EC50 under setting [2] is less than 1 µM. Where the note is “with co-corrector (2 μM), 2 µM”, the “Maximum % activity (with co-corrector)” value is given as “+++ (≥350)”. The Emax (without co-corrector) is less than 100%.

Take `COc1nc(C(C)(C)C)ccc1CN[C@H]1[C@H](C(C)(C)C)[C@@H](C(=O)O)N(C(=O)C2Cc3ccccc3O2)[C@H]1c1ccccc1` (single isomer, unassigned) [Example I-181]: the EC50 by setting is: under setting [1], less than 1 µM; under setting [2], less than 1 µM. For the same molecule, under “with co-corrector (2 μM)”, the “Maximum % activity (with co-corrector)” value was “+++ (≥350)”. For the same molecule, the Emax (without co-corrector) is less than 100%.

As for `COc1ccc(C(C)(C)C)cc1CN[C@H]1[C@H](C(C)(C)C)[C@@H](C(=O)O)N(C(=O)C2CCCN(C)C2=O)[C@H]1c1ccccc1` (single isomer, unassigned) [Example I-191], the EC50 under setting [1] was 1 to 10 µM and the EC50 under setting [2] was in the range of 1 to 10 µM. Moreover, the “Maximum % activity (with co-corrector)” value (with co-corrector (2 μM)) was “+++ (≥350)”. The Emax (without co-corrector) was more than 200%.

As to `COc1cc(C(F)(F)F)ccc1CN[C@@H]1[C@@H](C(C)(C)C)[C@H](C(=O)O)N(C(=O)C(C)Oc2ccccc2)[C@@H]1c1ccccc1` (single isomer, unassigned) [II-58], the EC50 was 1 to 10 µM under setting [3] and 1 to 10 µM under setting [4]. For the same molecule, the “Maximum % activity (with co-corrector)” value under setting [5] was “++ (≥150 and <350)”. The Emax (CSE-HRP, without co-corrector) was less than 100%.

Turning to `COc1cc(C(F)(F)F)ccc1CN[C@@H]1[C@@H](C(C)(C)C)[C@H](C(=O)O)N(C(=O)C(C)Oc2ccccc2)[C@@H]1c1ccccc1` (single isomer, unassigned) [II-67], the EC50 under setting [3] was in the range of 1 to 10 µM. The “Maximum % activity (with co-corrector)” value under setting [5] is “++ (≥150 and <350)”.

For the molecule `COc1cc(C(F)(F)F)ccc1CN[C@@H]1[C@@H](C(C)(C)C)[C@H](C(=O)O)N(C(=O)C(C)c2ccccc2)[C@@H]1c1ccccc1` (single isomer, unassigned) [II-80], the EC50 was 1 to 10 µM under setting [3] and 1 to 10 µM under setting [4]. Besides, the “Maximum % activity (with co-corrector)” value under setting [5] was “+++ (≥350)”. For the same molecule, for the setting “CSE-HRP, without co-corrector”, the Emax is 100 to 200%.

For `COc1ccc(C(C)(C)C)cc1CN[C@H]1[C@H](C(C)(C)C)[C@@H](C(=O)O)N(C(=O)C2CCc3ccccc3O2)[C@H]1c1ccccc1` (single isomer, unassigned) [II-164], the EC50 is less than 1 µM under setting [3] and less than 1 µM under setting [4]. In addition, the “Maximum % activity (with co-corrector)” value under setting [5] was “+++ (≥350)”. For the same molecule, under “CSE-HRP, without co-corrector”, the Emax was more than 200%.

As to `COc1ccc(C(C)(C)C)cc1CN[C@H]1[C@H](C(C)(C)C)[C@@H](C(=O)O)N(C(=O)C(C)n2cc(Cl)c(C)n2)[C@H]1c1ccccc1` (single isomer, unassigned) [II-237], the EC50 by setting is: under setting [3], 1 to 10 µM; under setting [4], 1 to 10 µM. In addition, the “Maximum % activity (with co-corrector)” value under setting [5] is “+++ (≥350)”. Further, the “Maximum % activity (without co-corrector)” value (CSE-HRP, without co-corrector) is recorded as “+ (<100)”.

As to `COc1ccc(C(F)(F)F)cc1CN[C@H]1[C@H](C(C)(C)C)[C@@H](C(=O)O)N(C(=O)C2Cc3ccccc3O2)[C@H]1c1ccccc1` (single isomer, unassigned) [II-265], the EC50 is, setting by setting: under setting [3], 1 to 10 µM; under setting [4], 1 to 10 µM. For the same molecule, the “Maximum % activity (with co-corrector)” value under setting [6] is “++ (≥150 and <350)”. In addition, where the note is “CSE-HRP, without co-corrector”, the Emax was less than 100%.

On to `COc1ccc(C(F)(F)F)cc1CN[C@H]1[C@H](C(C)(C)C)[C@@H](C(=O)O)N(C(=O)C2Cc3ccccc3O2)[C@H]1c1ccccc1` (single isomer, unassigned) [II-266], for which the EC50 was 1 to 10 µM under setting [3] and less than 1 µM under setting [4]. Also, the “Maximum % activity (with co-corrector)” value under setting [6] is “+++ (≥350)”. For the same molecule, the “Maximum % activity (without co-corrector)” value (CSE-HRP, without co-corrector) is “++ (≥100 and <200)”.

Turning to `COc1ccc(C(C)(C)C)cc1CN[C@H]1[C@H](C(C)(C)C)[C@@H](C(=O)O)N(C(=O)C(OC)c2cccc(Cl)c2)[C@H]1c1ccccc1` (single isomer, unassigned) [II-270], the EC50 under setting [3] was less than 1 µM and the EC50 under setting [4] is less than 1 µM. In addition, the “Maximum % activity (with co-corrector)” value under setting [5] is “+++ (≥350)”. For the same molecule, for the setting “CSE-HRP, without co-corrector”, the Emax is more than 200%.

Consider `COc1ccc(C(C)(C)C)cc1CN[C@H]1[C@H](C(C)(C)C)[C@@H](C(=O)O)N(C(=O)C(OC)c2cccc(Cl)c2)[C@H]1c1ccccc1` (single isomer, unassigned) [II-271], for which the EC50 reads like this: under setting [3], 1 to 10 µM; under setting [4], less than 1 µM. Moreover, under setting [5], the “Maximum % activity (with co-corrector)” value is “+++ (≥350)”. In addition, the “Maximum % activity (without co-corrector)” value (CSE-HRP, without co-corrector) is “+++ (≥200)”.

Regarding `COc1ccc(C(C)(C)C)cc1CN[C@H]1[C@H](C(C)(C)C)[C@@H](C(=O)O)N(C(=O)C2Cc3ccccc3O2)[C@H]1c1ccccc1` (single isomer, unassigned) [II-272], the EC50 lay within 1 to 10 µM under setting [3] and 1 to 10 µM under setting [4]. For the same molecule, the “Maximum % activity (with co-corrector)” value under setting [5] is “+++ (≥350)”. The Emax (CSE-HRP, without co-corrector) was 100 to 200%.

On to `COc1ccc(C(C)(C)C)cc1CN[C@H]1[C@H](C(C)(C)C)[C@@H](C(=O)O)N(C(=O)C2Cc3ccccc3O2)[C@H]1c1cccnc1N(C)C` (single isomer, unassigned) [II-421], for which the Emax under setting [7] was less than 100%. Further, the half-maximal effective concentration (EC50) runs as follows: under setting [1], 1 to 10 µM; under setting [2], 1 to 10 µM. Besides, the “Maximum % activity (with co-corrector)” value under setting [8] is “++ (≥150 and <350)”.

As for `COc1nc(C(C)(C)C)ccc1CN[C@H]1[C@H](C(C)(C)C)[C@@H](C(=O)O)N(C(=O)C2Cc3ccccc3O2)[C@H]1c1ccccc1` (single isomer, unassigned) [II-430], the Emax under setting [7] is less than 100%. Further, under setting [1], the EC50 is less than 1 µM. The “Maximum % activity (with co-corrector)” value under setting [8] was “++ (≥150 and <350)”.

Take `COc1ccc(C(C)(C)C)cc1CN[C@H]1[C@H](C(C)(C)C)[C@@H](C(=O)O)N(C(=O)C2CCc3ccccc3O2)[C@H]1c1cccnc1N(C)C` (single isomer, unassigned) [II-438]: the Emax under setting [7] was less than 100%. The EC50 under setting [1] fell in the range of 1 to 10 µM. In addition, the “Maximum % activity (with co-corrector)” value under setting [8] was “++ (≥150 and <350)”.

For the molecule `COc1ccc(C(C)(C)C)cc1CN[C@H]1[C@H](C(C)(C)C)[C@@H](C(=O)O)N(C(=O)C2CCCN(C)C2=O)[C@H]1c1ccccc1` (single isomer, unassigned) [II-444], the Emax under setting [7] was less than 100%. In addition, the EC50 under setting [1] is 1 to 10 µM. Besides, under setting [8], the “Maximum % activity (with co-corrector)” value is “++ (≥150 and <350)”.

Take `COc1ccc(C(C)(C)C)cc1CN[C@H]1[C@H](C(C)(C)C)[C@@H](C(=O)O)N(C(=O)C2CCc3ccc(F)cc3O2)[C@H]1c1cccnc1N(C)C` (single isomer, unassigned) [II-452]: the Emax under setting [7] was in the range of 100 to 200%. Also, the EC50 is 1 to 10 µM under setting [1] and 1 to 10 µM under setting [2]. Further, under setting [9], the “Maximum % activity (with co-corrector)” value is given as “+++ (≥350)”.

As for `COc1ccc(C(C)(C)C)cc1CN[C@H]1[C@H](C(C)(C)C)[C@@H](C(=O)O)N(C(=O)C2CCc3ccc(F)cc3O2)[C@H]1c1cccnc1N(C)C` (single isomer, unassigned) [II-453], the “Maximum % activity (without co-corrector)” value under setting [7] is reported as “+ (<100)”. Moreover, the EC50 reads like this: under setting [1], more than 10 µM; under setting [2], less than 1 µM. Moreover, under setting [9], the “Maximum % activity (with co-corrector)” value was “++ (≥150 and <350)”.

On to `COc1ccc(C(C)(C)C)cc1CN[C@H]1[C@H](C(C)(C)C)[C@@H](C(=O)O)N(C(=O)C2COc3ccccc3O2)[C@H]1c1cccnc1N(C)C` (single isomer, unassigned) [II-471], for which the Emax under setting [7] is less than 100%. Moreover, the EC50 is more than 10 µM under setting [1] and less than 1 µM under setting [2]. Further, the “Maximum % activity (with co-corrector)” value under setting [8] was “++ (≥150 and <350)”.

`COc1ccc(C(C)(C)C)cc1CN[C@H]1[C@H](C(C)(C)C)[C@@H](C(=O)O)N(C(=O)C2COc3ccccc3O2)[C@H]1c1cccnc1N(C)C` (single isomer, unassigned) [II-472]: the “Maximum % activity (without co-corrector)” value under setting [7] was “+ (<100)”. In addition, the EC50 runs as follows: under setting [1], 1 to 10 µM; under setting [2], 1 to 10 µM. Further, under setting [8], the “Maximum % activity (with co-corrector)” value is “++ (≥150 and <350)”.
